Measured values from US10905123B2, “Herbicidal compounds” (Syngenta Participations AG, priority 2015, dated 2021).

Key:
Format in all cases: in vivo
Conditions in all cases: evaluated after 13 days
[1] = tested on: Echinochloa crus-galli (ECHCG); assay: B2 post-emergence herbicidal activity
Experimental: (§1) Seeds of a variety of test species were sown in standard soil in pots: Triticum aestivium (TRZAW), Oryza sativa (ORYSA), Avena fatua (AVEFA), Alopecurus myosuroides (ALOMY), Echinochloa crus-galli (ECHCG), Lolium perenne (LOLPE). After 8 days cultivation (post-emergence) under controlled conditions in a glasshouse (at 24/16° C., day/night; 14 hours light; 65% humidity), the plants were sprayed with an aqueous spray solution derived from the formulation of the technical active ingredient in acetone/water (50:50) solution containing 0.5% Tween 20 (polyoxyethelyene sorbitan monolaurate, CAS RN 9005-64-5). The test plants were then grown in a glasshouse under controlled conditions (at 24/16° C., day/night; 14 hours light; 65% humidity) and watered twice daily. After 13 days, the test was evaluated (5=total damage to plant; 0=no damage to plant).

Lolium perenne (LOLPE) [2] = assay: B2 post-emergence herbicidal activity
Experimental: as §1

[3] = tested on: Alopecurus myosuroides (ALOMY); assay: B2 post-emergence herbicidal activity
Experimental: as §1

Avena fatua (AVEFA) [4] = assay: B2 post-emergence herbicidal activity
Experimental: as §1

Oryza sativa (ORYSA) [5] = assay: B2 post-emergence herbicidal activity
Experimental: as §1

[6] = tested on: Triticum aestivium (TRZAW); assay: B2 post-emergence herbicidal activity
Experimental: as §1

[7] = tested on: Echinochloa crus-galli (ECHCG); assay: B1 pre-emergence herbicidal activity
Experimental: as §1, with “After” for “After 8 days”, “for one day (pre-emergence)” for “(post-emergence)”

Lolium perenne (LOLPE) [8] = assay: B1 pre-emergence herbicidal activity
Experimental: as §1, with “After” for “After 8 days”, “for one day (pre-emergence)” for “(post-emergence)”

[9] = tested on: Alopecurus myosuroides (ALOMY); assay: B1 pre-emergence herbicidal activity
Experimental: as §1, with “After” for “After 8 days”, “for one day (pre-emergence)” for “(post-emergence)”

Avena fatua (AVEFA) [10] = assay: B1 pre-emergence herbicidal activity
Experimental: as §1, with “After” for “After 8 days”, “for one day (pre-emergence)” for “(post-emergence)”

Oryza sativa (ORYSA) [11] = assay: B1 pre-emergence herbicidal activity
Experimental: as §1, with “After” for “After 8 days”, “for one day (pre-emergence)” for “(post-emergence)”

[12] = tested on: Triticum aestivium (TRZAW); assay: B1 pre-emergence herbicidal activity
Experimental: as §1, with “After” for “After 8 days”, “for one day (pre-emergence)” for “(post-emergence)”

| SMILES | Control of ECHCG after post-emergence application (damage score 0-5) ([1]; Rate 1000 g/ha) | Control of LOLPE after post-emergence application (damage score 0-5) (Lolium perenne (LOLPE) [2]; Rate 1000 g/ha) | Control of ALOMY after post-emergence application (damage score 0-5) ([3]; Rate 1000 g/ha) | Control of AVEFA after post-emergence application (damage score 0-5) (Avena fatua (AVEFA) [4]; Rate 1000 g/ha) | Control of ORYSA after post-emergence application (damage score 0-5) (Oryza sativa (ORYSA) [5]; Rate 1000 g/ha) | Control of TRZAW after post-emergence application (damage score 0-5) ([6]; Rate 1000 g/ha) | Control of ECHCG after pre-emergence application (damage score 0-5) ([7]; Rate 1000 g/ha) | Control of LOLPE after pre-emergence application (damage score 0-5) (Lolium perenne (LOLPE) [8]; Rate 1000 g/ha) | Control of ALOMY after pre-emergence application (damage score 0-5) ([9]; Rate 1000 g/ha) | Control of AVEFA after pre-emergence application (damage score 0-5) (Avena fatua (AVEFA) [10]; Rate 1000 g/ha) | Control of ORYSA after pre-emergence application (damage score 0-5) (Oryza sativa (ORYSA) [11]; Rate 1000 g/ha) | Control of TRZAW after pre-emergence application (damage score 0-5) ([12]; Rate 1000 g/ha) | also measured |
| --- | --- | --- | --- | --- | --- | --- | --- | --- | --- | --- | --- | --- | --- |
| CC(C)(C)OC(=O)Nc1cn(-c2cccnc2)nc1C(F)(F)F [Compound A7] | – | – | – | – | – | – | – | – | – | – | – | – | Control of ECHCG after post-emergence application (damage score 0-5) ([1]; Rate 500 g/ha): 4; Control of LOLPE after post-emergence application (damage score 0-5) (Lolium perenne (LOLPE) [2]; Rate 500 g/ha): 1; Control of ALOMY after post-emergence application (damage score 0-5) ([3]; Rate 500 g/ha): 2; Control of AVEFA after post-emergence application (damage score 0-5) (Avena fatua (AVEFA) [4]; Rate 500 g/ha): 2; Control of ORYSA after post-emergence application (damage score 0-5) (Oryza sativa (ORYSA) [5]; Rate 500 g/ha): 1; Control of TRZAW after post-emergence application (damage score 0-5) ([6]; Rate 500 g/ha): 0; Control of ECHCG after pre-emergence application (damage score 0-5) ([7]; Rate 500 g/ha): 2; Control of LOLPE after pre-emergence application (damage score 0-5) (Lolium perenne (LOLPE) [8]; Rate 500 g/ha): 0; Control of ALOMY after pre-emergence application (damage score 0-5) ([9]; Rate 500 g/ha): 0; Control of AVEFA after pre-emergence application (damage score 0-5) (Avena fatua (AVEFA) [10]; Rate 500 g/ha): 0; Control of ORYSA after pre-emergence application (damage score 0-5) (Oryza sativa (ORYSA) [11]; Rate 500 g/ha): 1; Control of TRZAW after pre-emergence application (damage score 0-5) ([12]; Rate 500 g/ha): 0 |
| Cc1nn(-c2cncc(F)c2)cc1N(C)C(=O)OC(C)(C)C [Compound A10] | 4 | 1 | 1 | 3 | 1 | 0 | 4 | 1 | 0 | 2 | 1 | 0 | – |
| CN(C(=O)OC(C)(C)C)c1cc(-c2cncnc2)nn1C [Compound A14] | 4 | 3 | 1 | 4 | 0 | 1 | 3 | 0 | 1 | 3 | 0 | 1 | – |
| Cc1nn(-c2cncnc2)cc1N(C)C(=O)NC(C)(C)C [Compound A16] | 4 | 2 | 1 | 3 | 0 | 1 | 2 | 1 | 1 | 1 | 1 | 1 | – |
| CN(C(=O)NC(C)(C)C)c1cn(-c2cncc(F)c2)nc1C(F)(F)F [Compound A19] | 4 | 1 | 1 | 1 | 0 | 0 | 2 | 1 | 0 | 0 | 0 | 0 | – |
